Assays:
Assay type in all cases: in vivo
[1] = system: adult unfed cat fleas (Ctenocephalides felis); assay: Ctenocephalides felis oral test; conditions: 48 h, read-out: activity (mortality)
How it was run: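 About 20 adult unfed fleas fed through parafilm on cattle blood containing compound (DMSO stock diluted in blood), blood held at 37 °C and fleas at room temperature. Mortality (%) scored after 2 days.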

[2] = system: Musca domestica strain WHO-N; assay: Musca domestica test (MUSCDO surface treatment & contact assay); conditions: 24 hours after contact, read-out: efficacy (mortality); for mortality at 4 mg/m2: surface concentration 4 mg/m^2, exposure 30 minutes; for mortality at 20 mg/m2: surface concentration 20 mg/m^2, exposure 30 minutes
How it was run: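 Compound dissolved at 2 mg/ml in acetone with 2000 ppm rapeseed oil methyl ester and pipetted onto a glazed tile. After the acetone evaporated, adult WHO-N flies were exposed to the dried surface for 30 min, with % mortality scored 24 h after contact.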

[3] = system: green peach aphid (Myzus persicae); assay: Myzus persicae oral test; conditions: 120 h, application rate 4 ppm, after 5 days
How it was run: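 Readout: % mortality at day 5, where 100% = all aphids dead and 0% = none dead. Feeding via parafilm membrane over compound in IPL41 medium (33%+15% sugar); mixed-age population. Stock in acetone (1:100 w/w), water-diluted.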

[4] = system: larvae of the banded cucumber beetle (Diabrotica balteata); assay: Diabrotica balteata spray test; conditions: 168 h, after 7 days, read-out: activity (efficacy: seedlings grown); for pest or weed control at 100 g/ha: application rate 100 g/ha (=32 pg/well); for pest or weed control at 500 g/ha: application rate 500 g/ha (=160 pg/well)
How it was run: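 Read-out is % efficacy at day 7, 0% meaning no seedling growth and 100% growth equal to uninfested untreated controls. Test solutions (acetone/DMF concentrate diluted with water carrying 1000 ppm emulsifier) were sprayed onto 1-day-germinated wheat seeds, 5 per well, before infestation with 10-20 larvae.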

[5] = system: fall armyworm larvae (Spodoptera frugiperda); assay: Spodoptera frugiperda spray test; conditions: 168 h, read-out: activity (mortality)
How it was run: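 Larvae of fall armyworm placed on dried maize leaf sections previously sprayed with emulsified compound (acetone/DMF solvent, water with 1000 ppm emulsifier). Percent of caterpillars killed recorded on day 7, 0–100% scale.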

[6] = system: Aedes aegypti strain MONHEIM; assay: Aedes aegypti test (AEDSAE surface treatment & contact assay); conditions: 24 hours after contact, read-out: efficacy (mortality); for mortality at 4 mg/m2: surface concentration 4 mg/m^2, exposure 30 minutes; for mortality at 20 mg/m2: surface concentration 20 mg/m^2, exposure 30 minutes
How it was run: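 Percent mortality was read 24 h after adult MONHEIM mosquitoes were held for 30 min on a tile treated with compound. Compound applied from acetone solution (2 mg/ml) containing 2000 ppm rapeseed oil methyl ester, after evaporation.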

[7] = system: adult engorged female ticks (Rhipicephalus microplus); assay: Rhipicephalus (Boophilus) microplus injection test; conditions: 168 h, egg deposition after 7 days, read-out: activity (efficacy: infertile eggs); for pest or weed control at 4 pg: application rate 4 pg/animal; for pest or weed control at 0.02 mg: application rate 20 μg/animal
How it was run: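 Abdominal injection, 1 μL compound/DMSO, n=5 engorged adult females; climate-chamber incubation. Readout d7: fertile egg laying; doubtful eggs held to hatch (~42 d). % efficacy = infertile eggs (100% all infertile).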

[8] = system: adult cat fleas (Ctenocephalides felis); assay: Ctenocephalides felis in-vitro contact test, adult cat flea; conditions: application rate 5 μg/cm^2 (=500 g/ha), after 48 hours, read-out: activity (efficacy: fleas dead or moribund)
How it was run: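 Efficacy, as % of fleas dead or moribund, was read 48 h after 5-10 adult cat fleas were confined in glass tubes whose walls carried dried compound film (900 ppm, […]). Fleas failing to escape upward from a 45-50° C plate within 5 min counted as dead or moribund.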

Row | SMILES | mortality at 100 ppm [1] [%] | mortality at 4 mg/m2 [2] [%] | mortality at 20 mg/m2 [2] [%] | mortality at 4 ppm [3] [%] | pest or weed control at 100 g/ha [4] [%] | mortality at 100 g/ha [5] [%] | mortality at 4 mg/m2 [6] [%] | mortality at 20 mg/m2 [6] [%] | pest or weed control at 4 pg [7] [%] | pest or weed control at 0.02 mg [7] [%] | pest or weed control at 5 µg/cm2 [8] [%] | pest or weed control at 500 g/ha [4] [%] | mortality at 500 g/ha [5] [%]
1 | C[C@H](NC(=O)c1cc(Cl)cc(S(=O)(=O)C2CC2)c1)c1nc(C2CC2)nn1-c1ncc(Cl)cn1 [I-25] | 100 | 80 to 100 | 80 to 100 | 100 | 100 | 100 | 80 to 100 | 80 to 100 | 100 | 100 | 100 | – | –
2 | CC(NC(=O)c1cc(C(F)(F)F)cc(S(C)(=O)=O)c1)c1nc(Cl)nn1-c1ncccn1 (stereo not drawn) [I-30] | 100 | – | 80 to 100 | 100 | 100 | – | 80 to 100 | 80 to 100 | 100 | 100 | 100 | – | –
3 | C[C@H](NC(=O)c1cc(Cl)cc([S+]([O-])C(F)F)c1)c1ncnn1-c1ccc(C#N)cn1 (stereo partly drawn) [II-18, 3-chloro-N-{(1S)-1-[1-(5-cyanopyridin-2-yl)-1H-1,2,4-triazol-5-yl]ethyl}-5-[(difluoro-methyl)sulfinyl]benzamide] | 100 | – | 80 to 100 | 100 | 100 | 100 | 80 to 100 | 80 to 100 | 100 | 100 | 100 | 100 | 100
4 | C[C@H](NC(=O)c1cc(OC(F)(F)F)cc(C2CC2)c1)c1ncnn1-c1ccccn1 [II-22] | 100 | 80 to 100 | 80 to 100 | 100 | 100 | 100 | 80 to 100 | 80 to 100 | 100 | 100 | 100 | 100 | 100
5 | C[C@H](NC(=O)c1cc(Cl)cc(S(=O)(=O)C(F)F)c1)c1ncnn1-c1ncccn1 [II-34] | 100 | – | 80 to 100 | 100 | 100 | 83 | 80 to 100 | 80 to 100 | 100 | 100 | 100 | 100 | 100
6 | Cc1nc([C@H](C)NC(=O)c2cc(Cl)cc(S(=O)(=O)C(F)F)c2)n(-c2ccc(C#N)cn2)n1 [II-35] | 100 | 80 to 100 | 80 to 100 | 100 | 100 | – | 80 to 100 | 80 to 100 | 100 | 100 | 100 | 100 | –
7 | Cc1nc([C@H](C)NC(=O)c2cc(Cl)cc(S(=O)(=O)C(F)F)c2)n(-c2ccc(Cl)cn2)n1 [II-36] | 100 | 80 to 100 | – | 100 | 100 | 100 | 80 to 100 | 80 to 100 | 100 | 100 | 100 | 100 | 100
8 | Cc1nc([C@H](C)NC(=O)c2cc(Cl)cc(C3(C#N)CC3)c2)n(-c2ccc(C#N)cn2)n1 [II-38] | 100 | 80 to 100 | 80 to 100 | 100 | 100 | 100 | 80 to 100 | – | 100 | 100 | 100 | – | –
9 | Cc1nc([C@H](C)NC(=O)c2cc(OC(F)(F)F)cc(C3CC3)c2)n(-c2ccc(C#N)cn2)n1 [II-39] | 100 | 80 to 100 | 80 to 100 | 100 | 100 | 100 | 80 to 100 | 80 to 100 | 100 | 100 | 100 | – | –
10 | C[C@H](NC(=O)c1cc(C(F)(F)F)cc(C2(C#N)CC2)c1)c1ncnn1-c1ccc(C#N)cn1 [II-47] | 100 | 80 to 100 | 80 to 100 | 100 | 100 | 100 | 80 to 100 | 80 to 100 | 100 | 100 | 100 | – | –
11 | C[C@H](NC(=O)c1cc(C(F)(F)F)cc(C2(C#N)CC2)c1)c1ncnn1-c1ccc(Cl)cn1 [II-48] | 100 | 80 to 100 | 80 to 100 | 100 | 100 | 100 | 80 to 100 | 80 to 100 | 100 | 100 | 90 | – | –
12 | Cc1nc([C@H](C)NC(=O)c2cc(C(F)(F)F)cc(C3(C#N)CC3)c2)n(-c2ccc(C#N)cn2)n1 [II-49] | 100 | 80 to 100 | 80 to 100 | 100 | 100 | 100 | 80 to 100 | 80 to 100 | 100 | 100 | 100 | – | –
13 | Cc1nc([C@H](C)NC(=O)c2cc(C(F)(F)F)cc(C3(C#N)CC3)c2)n(-c2ccc(Cl)cn2)n1 [II-50] | 100 | – | 80 to 100 | 100 | 100 | 100 | 80 to 100 | 80 to 100 | 100 | 100 | 100 | – | –
14 | Cc1nc([C@H](C)NC(=O)c2cc(C(F)(F)F)cc(S(C)(=O)=O)c2)n(-c2ccc(C#N)cn2)n1 [II-52] | 100 | 80 to 100 | 80 to 100 | – | 100 | 100 | 80 to 100 | 80 to 100 | 100 | – | 100 | – | –

Reference: US20260206761A1, “HETEROARYL-TRIAZOLE COMPOUNDS AS PESTICIDES” (Bayer Aktiengesellschaft, priority 2019, published 2026)
